In the assay the target is T1, Human GLP-1 receptor stably expressing cells (hGLP-1R/CHO-K1 cells) (Homo sapiens, UniProt P43220).
T1 construct: expressed in transfected cells
Briefly: Measurement of GLP-1 receptor agonist activity (cAMP assay). It counts as cell-based. As to conditions: for Emax: CHO-K1, maximum effect, cAMP with 2 nM human GLP-1 (7-36) = 100%, DMSO only = 0%, read-out: Emax; for EC50: increase in cAMP concentration in hGLP-1R/CHO-K1 cells, 37° C. 1 hour. As for the experimental part: Test Example 1: Measurement of GLP-1 Receptor Agonist Activity
Human GLP-1 receptor stably expressing cells (hGLP-1R/CHO-K1 cells) are cultured in an a-MEM medium (Sigma) containing 10% FBS (Hyclone), 2% GlutaMAX (Gibco), 1% G418 (Nacalai Tesque), and 1% Penicillin-Streptomycin Mixed Solution (Sigma) at 37° C. under 5% CO2 conditions, and recovered by treating a 10 fold diluted 5.0 g/1-trypsin/5.3 mmol/1-EDTA solution (Nacalai Tesque) and cryopreserved.
A DMSO solution containing the compound of the present invention or human GLP-1 (7-36) (Phoenix Pharmaceuticals) is dispensed into a 384-well microplate (Greiner) at 62.5 nL/well, and in addition, 400 μM Forskolin (Nacalai Tesque) is dispensed therein at 7.5 nL/well. Subsequently, the frozen GLP-1 R/CHO-K1 cells are thawed in a thermostatic bath at 37° C., suspended in HBSS buffer (GIBCO) containing 0.1% BSA (Sigma), 20 mM HEPES, 0.1 mM IBMX (Sigma), and 0.2 mM RO20-1724 (Calbiochem) at 2×10^4 cells/mL, and the cell suspension is added at 6 μL/well. The solution was incubated at 37° C. for 1 hour and intracellular cAMP concentration is measured using cAMP Gs dynamic kit (Cisbio) according to the protocol attached to the product. Specifically, a cAMP-d2/Anti-cAMP-Cryptate (1/1) mixture solution is added in a total amount of 6 μL/well, and is incubated at room temperature for 1 hour, and then, time-resolved fluorescence is measured using PHERAstar (BMG Labtech).
Assuming that the cAMP concentration when human GLP-1 (7-36) is dispensed to a final concentration of 2 nM is 100% and the cAMP concentration when only DMSO is dispensed is 0%, the 50% effective concentration (EC50) and the maximum effect (Emax) of the compound of the present invention are calculated using an increase in the cAMP concentration as an index, using TIBCO Spotfire (TIBCO Software). The dilution concentration or the dilution solvent are changed as necessary.
The compounds of the present invention were tested essentially as described above.

What is called Emax is the maximal effect, on the per cent scale that the assay sets. For orientation: EC50 means the concentration needed to bring the measured effect to its halfway point. A high value points to a less potent agent.

T1 sequence (P43220 24-463): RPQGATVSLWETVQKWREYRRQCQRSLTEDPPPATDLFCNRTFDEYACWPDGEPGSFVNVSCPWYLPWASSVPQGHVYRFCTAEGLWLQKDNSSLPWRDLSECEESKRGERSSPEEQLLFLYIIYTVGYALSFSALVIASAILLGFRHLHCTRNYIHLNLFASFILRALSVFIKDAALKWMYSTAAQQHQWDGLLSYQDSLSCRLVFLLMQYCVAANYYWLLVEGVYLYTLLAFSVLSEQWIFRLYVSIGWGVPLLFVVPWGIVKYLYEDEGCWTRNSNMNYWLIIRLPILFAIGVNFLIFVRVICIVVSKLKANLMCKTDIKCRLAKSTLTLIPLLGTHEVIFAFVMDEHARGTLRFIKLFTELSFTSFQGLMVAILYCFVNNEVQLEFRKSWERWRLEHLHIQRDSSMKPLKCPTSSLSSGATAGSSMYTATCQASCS

On to `C[C@H]1c2c(ccc3c2OC(C)(c2ccc(Cl)cn2)O3)CCN1Cc1nc2ccc(C(=O)O)cc2n1C[C@@H]1CCO1` (stereo partly drawn) [Compound I-093], for which the maximal effect (Emax) was found to be 96.3% and it took 6.34 nM to reach a half-maximal effect (EC50).

On to `C[C@H]1c2nc(OCc3ccc(Cl)cn3)c(Cl)cc2CCN1Cc1nc2c(F)cc(C(=O)O)cc2n1C[C@@H]1CCO1` [Compound I-081], for which the maximal effect (Emax) is 96.7% and the half-maximal effective concentration (EC50) was 0.179 nM.

Consider `C[C@H]1c2c(cc(Cl)c3c2OC(C)(c2ccc(Cl)cc2F)O3)CCN1Cc1nc2ccc(C(=O)O)cc2n1C[C@@H]1CCO1` (stereo partly drawn) [Compound I-090], for which the maximal response (Emax) came to 98% and the 50% effective concentration (EC50) stood at 2.05 nM.

Turning to `C[C@H]1c2nc(OCc3ccc(Cl)cc3F)c(C(F)F)cc2CCN1Cc1nc2ccc(C(=O)O)nc2n1C[C@@H]1CCO1` [Compound I-097], the Emax worked out at 109% and the concentration giving a half-maximal response (EC50) amounted to 0.343 nM.

Consider `C[C@H]1c2cc(OCc3cc(F)c(Cl)cc3F)c(C(F)F)cc2CCN1Cc1nc2ccc(C(=O)O)cc2n1C[C@@H]1CCO1` [Compound I-010], for which the Emax came out at 117% and the 50% effective concentration (EC50) turned out to be 1.99 nM.

For the compound `C[C@H]1c2nc(OCc3ccc(C#N)cc3F)c(C(F)F)cc2CCN1Cc1nc2ccc(C(=O)O)nc2n1C[C@@H]1CCO1` [Compound I-103], the maximal response (Emax) turned out to be 97% and the EC50 was determined as 0.558 nM.

For `C[C@H]1c2nc(OCc3ccc(F)cc3F)c(C(F)F)cc2CCN1Cc1nc2c(F)cc(C(=O)O)cc2n1C[C@@H]1CCO1` [Compound I-110], the maximal effect (Emax) was found to be 113% and the concentration giving a half-maximal response (EC50) turned out to be 0.0706 nM.

With `COc1cc(C(=O)O)cc2c1nc(CN1CCc3cc(Cl)c(OCc4c(F)cc(F)cc4F)nc3[C@@H]1C)n2C[C@@H]1CCO1` [Compound I-075], the maximal effect (Emax) is 118% and the concentration giving a half-maximal response (EC50) came out at 0.0493 nM.

For the compound `C[C@H]1c2nc(OCc3ccccc3Cl)c(C(F)F)cc2CCN1Cc1nc2ccc(C(=O)O)c(F)c2n1C[C@@H]1CCO1` [Compound I-120], the Emax stood at 121% and a half-maximal response (EC50) required 0.481 nM.

Turning to `C[C@H]1c2nc(OCc3c(F)cc(Cl)cc3F)c(Cl)cc2CCN1Cc1nc2ccc(C(=O)O)cc2n1C[C@@H]1CCO1` [Compound I-024], the Emax stood at 124% and a half-maximal response (EC50) required 0.117 nM.

With `C[C@H]1c2cc(OCc3c(F)cc(Cl)cc3F)c(C(F)F)cc2CCN1Cc1nc2ccc(C(=O)O)cc2n1C[C@@H]1CCO1` [Compound I-012], the Emax stood at 108% and a half-maximal response (EC50) required 1.25 nM.

`C[C@H]1c2nc(OCc3ccc(F)cc3)c(Cl)cc2CCN1Cc1nc2ccc(C(=O)O)c(F)c2n1C[C@@H]1CCO1` [Compound I-042]: the Emax was determined as 127% and a half-maximal effect (EC50) was put at 0.208 nM.

Consider `C[C@H]1c2nc(OCc3ccc(Cl)cc3)c(C(F)F)cc2CCN1Cc1nc2ccc(C(=O)O)cc2n1C[C@@H]1CCO1` [Compound I-052], for which the Emax stood at 115% and a half-maximal response (EC50) required 0.252 nM.

Turning to `Cc1cc2c(nc1OCc1ccc(Cl)cc1F)[C@H](C)N(Cc1nc3ccc(C(=O)O)cc3n1C[C@@H]1CCO1)CC2` [Compound I-002], the Emax stood at 109% and the EC50 is 0.168 nM.

For the compound `Cc1ccc(COc2nc3c(cc2Cl)CCN(Cc2nc4ccc(C(=O)O)c(F)c4n2C[C@@H]2CCO2)[C@H]3C)cc1` [Compound I-035], the Emax is 124% and the 50% effective concentration (EC50) amounted to 0.158 nM.

In the case of `C[C@H]1c2c(cc(C(F)(F)F)c3c2O[C@](C)(c2ccc(Cl)cc2F)O3)CCN1Cc1nc2ccc(C(=O)O)cc2n1C[C@@H]1CCO1` [Compound I-046], the Emax was 112% and the midpoint of the response, the EC50, lay at 669 nM.

Regarding `COc1cc(C(=O)O)cc2c1nc(CN1CCc3cc(Cl)c(OCc4ccc(F)cc4)nc3[C@@H]1C)n2C[C@@H]1CCO1` [Compound I-073], the Emax came to 101% and the concentration giving a half-maximal response (EC50) was 0.0658 nM.

Turning to `C[C@H]1c2nc(OCc3ccc(Cl)cc3Cl)c(Cl)cc2CCN1Cc1nc2ccc(C(=O)O)nc2n1C[C@@H]1CCO1` [Compound I-030], the Emax was found to be 123% and the EC50 was determined as 0.37 nM.

As for `C[C@H]1c2nc(OCc3ccc(Cl)cc3F)c(Cl)cc2CCN1Cc1nc2c(F)cc(C(=O)O)cc2n1C[C@@H]1CCO1` [Compound I-089], the Emax was determined as 106% and the response was half-maximal at 0.0739 nM (EC50).

For the compound `O=C(O)c1ccc2nc(Cc3ccc4nc(C(F)(F)F)c(OCc5ccc(Cl)cc5F)nc4c3F)n(C[C@@H]3CCO3)c2c1F` [Compound I-001], the Emax is 100% and the 50% effective concentration (EC50) is 0.538 nM.

Consider `Cc1nc(COc2nc3c(cc2C(F)(F)F)CCN(Cc2nc4ccc(C(=O)O)cc4n2C[C@@H]2CCO2)[C@H]3C)no1` [Compound I-160], for which the Emax worked out at 66.3% and the concentration giving a half-maximal response (EC50) was determined as 83.5 nM.

On to `C[C@H]1c2c(cc(C(F)(F)F)c3c2OC(C)(c2ccc(Cl)cc2F)O3)CCN1Cc1nc2ccc(C(=O)O)cc2n1C[C@@H]1CCO1` (mixture of isomers) [Compound I-015], for which the Emax amounted to 93.3% and the EC50 came out at 2.33 nM.

For the compound `COc1cc(C(=O)O)cc2c1nc(CN1CCc3cc(C(F)F)c(OCc4ccc(C#N)cc4F)nc3[C@@H]1C)n2C[C@@H]1CCO1` [Compound I-135], the Emax was determined as 134% and the concentration for a half-maximal effect (EC50) was 0.0165 nM.

As to `C[C@H]1c2nc(OCc3nc4ccccn4n3)c(C(F)(F)F)cc2CCN1Cc1nc2ccc(C(=O)O)cc2n1C[C@@H]1CCO1` [Compound I-163], the Emax turned out to be 83.3% and the EC50 worked out at 32.3 nM.

For the compound `C[C@H]1c2nc(OCc3ccccc3Cl)c(C(F)F)cc2CCN1Cc1nc2ccc(C(=O)O)nc2n1C[C@@H]1CCO1` [Compound I-099], the maximal effect (Emax) came out at 106% and the EC50 was 2.55 nM.

`C[C@H]1c2nc(OCc3ccc(Cl)cc3F)c(Cl)cc2CCN1Cc1nc2ccc(C(=O)O)nc2n1C[C@@H]1CCO1` [Compound I-034]: the maximum response (Emax) turned out to be 103% and a half-maximal effect (EC50) was put at 0.249 nM.

Consider `C[C@H]1c2c(cc(Cl)c3c2OC(C)(c2ccc(Cl)cn2)O3)CCN1Cc1nc2ccc(C(=O)O)cc2n1C[C@@H]1CCO1` (stereo partly drawn) [Compound I-092], for which the Emax worked out at 108% and a half-maximal response (EC50) required 1.58 nM.

`C[C@H]1c2cc(OCc3ccc(F)cc3)c(C(F)F)cc2CCN1Cc1nc2ccc(C(=O)O)cc2n1C[C@@H]1CCO1` [Compound I-011]: the maximal effect (Emax) turned out to be 102% and the half-maximal effective concentration (EC50) came out at 16.1 nM.

For the compound `C[C@H]1c2nc(OCc3ccc(Cl)cc3F)c(C(F)F)cc2CCN1Cc1nc2ccc(C(=O)O)c(F)c2n1C[C@@H]1CCO1` [Compound I-116], the Emax came to 122% and the EC50 stood at 0.0463 nM.

Consider `C[C@H]1c2nc(OCc3ccc(F)cc3F)c(Cl)cc2CCN1Cc1nc2ccc(C(=O)O)cc2n1C[C@@H]1CCO1` [Compound I-019], for which the Emax was found to be 124% and the EC50 stood at 0.176 nM.

Consider `C[C@H]1c2nc(OCc3ccc(Cl)cc3Cl)c(C(F)F)cc2CCN1Cc1nc2ccc(C(=O)O)cc2n1C[C@@H]1CCO1` [Compound I-057], for which the Emax came out at 86.7% and the EC50 turned out to be 0.315 nM.

For `C[C@H]1c2nc(OCc3ccc(Cl)cc3Cl)c(C(F)F)cc2CCN1Cc1nc2ccc(C(=O)O)c(F)c2n1C[C@@H]1CCO1` [Compound I-122], the maximal effect (Emax) came to 112% and the EC50 amounted to 0.073 nM.

Take `O=C(O)c1ccc2nc(CC3CCc4cc(C(F)(F)F)c(OCc5ccc(Cl)cc5F)cc4C3)n(C[C@@H]3CCO3)c2c1` (stereo partly drawn) [Compound I-077]: the Emax stood at 92.3% and a half-maximal effect (EC50) was put at 7.35 nM.

For the compound `COc1cc(C(=O)O)cc2c1nc(CN1CCc3cc(C#N)c(OCc4ccc(Cl)cn4)nc3[C@@H]1C)n2C[C@@H]1CCO1` [Compound I-147], the Emax stood at 128% and a half-maximal effect (EC50) was put at 0.162 nM.

As for `C[C@H]1c2nc(NCc3c(F)cc(Cl)cc3F)c(C(F)(F)F)cc2CCN1Cc1nc2c(F)cc(C(=O)O)cc2n1C[C@@H]1CCO1` [Compound I-173], the maximum response (Emax) worked out at 99.7% and a half-maximal response (EC50) required 0.0889 nM.

In the case of `C[C@H]1c2nc(NCc3ccc(C#N)cc3F)c(C(F)(F)F)cc2CCN1Cc1nc2c(Cl)cc(C(=O)O)cc2n1C[C@@H]1CCO1` [Compound I-194], the Emax was 103% and it took 0.137 nM to reach a half-maximal effect (EC50).

Take `C[C@H]1c2nc(OCc3c(F)cc(Cl)cc3F)c(Cl)cc2CCN1Cc1nc2ccc(C(=O)O)nc2n1C[C@@H]1CCO1` [Compound I-033]: the Emax amounted to 111% and a half-maximal effect (EC50) was put at 0.437 nM.

Regarding `C[C@H]1c2nc(OCc3ccc(C#N)cc3F)c(C(F)F)cc2CCN1Cc1nc2ccc(C(=O)O)cc2n1C[C@@H]1CCO1` [Compound I-063], the Emax was 92.3% and the EC50 turned out to be 0.195 nM.

For `Cc1nonc1COc1nc2c(cc1C(F)(F)F)CCN(Cc1nc3ccc(C(=O)O)cc3n1C[C@@H]1CCO1)[C@H]2C` [Compound I-161], the maximal response (Emax) was found to be 73% and the concentration giving a half-maximal response (EC50) was determined as 28.2 nM.

For the origin of these results see US20260097037A1, “FUSED RING COMPOUND HAVING GLP-1 RECEPTOR AGONIST EFFECT” (Shionogi & Co., Ltd., priority 2022, published 2026).
